{
  "source": "patent US8088433B2",
  "about": "“Mononuclearly filled microcapsules” (Symrise AG, priority 2001, dated 2012)",
  "key": {"[1]": {"conditions": "cited from earlier work; for logPo/w / logKo/w: n-octanol/water distribution coefficient; for logKo/w: log10[co/cw], grouping of flavor substances by difficulty of encapsulation; for Log Ko/w: components of the Model flavor, Table 9"}, "[2]": {"assay": "flavor retention of Model-flavor components in alginate capsules, short continuous vs long batch gelling (ether extraction, HRGC/MS)", "assay_type": "physicochemical", "conditions": "wet alginate capsules, 5% calcium chloride, relative to Model-flavor solution theoretically encapsulated; for Flavor Retention, Short Gel Time (continuous): dwell time 1 minute; for Flavor Retention, Long Gel Time (Batch): dwell time 2 hours", "description": "50 g sodium alginate were dissolved in 195 g demineralized water using a high speed kneading mixer of the type Ultra-Turrax. 250 g Model-flavor were dissolved in 750 g neutral oil. The Model flavor was comprised of flavor components, which cover a large spectrum of water/oil solubility as indicated by logKo/w-values, see the following Table 9.\nThe two solutions (alginate, flavor) were conveyed to a vibrating two-stream nozzle head with an inner diameter of 150 μm and an outer diameter of 500 μm. The flow rates were adjusted for the flavor solution to 500 g per hour and for the shell solution to 1000 g per hour, the vibration frequency was adjusted to 200 Hz.\nFor the preferred short continuous gelling process the formed discrete droplets fell into a pipe reactor, which was filled with 5% calcium chloride, and were so transported, that the dwell time was 1 minute.\nThe results of the 1 minute capsule production (corresponding to 8.3 g encapsulated flavor solution) were then dissolved in 200 ml 1% aqueous […] solution. The mixture was then extracted for 4 hours in a perforator with diethyl ether. The diethyl ether extract was analyzed using HRGC/MS. The results were evaluated based on the surface of the GC/MS peaks for the components per gram of encapsulated aroma solution.\nFor the batch gelled process the formed discrete droplets fell into a 5% calcium chloride containing reactor with a dwell time of 2 hours. […] The same analytical protocol was carried out as for the short gel time process.\n10 g Model-flavor solution were dispersed in 200 ml 1% aqueous sodium citrate solution. The mixture was extracted in a perforator for 4 hours with diethyl ether and evaluated as described above.\nThe flavor retention for the respective flavor components during the short continuous gelling process and the long gel batch process were calculated on the basis of the amount of the Model-flavor solution which originally flowed through the nozzle system and theoretically was encapsulated, the results are presented in Table 10."}, "[3]": {"assay": "flavor retention of Model-flavor components in alginate capsules, drying with silicon dioxide vs fluidized bed drying", "assay_type": "physicochemical", "conditions": "for Convective Drying: % Retention: 200 g wet capsules dried in fluidized bed dryer at 30° C., 100 m^3 per hour air flow, shell water content 62%; for Drying \"water adsorbing\" Substances: % Retention: 200 g wet capsules mixed 10 minutes with 100 g silicon dioxide, shell water content 45%"}},
  "data": [
    {"smiles": "CC=O", "note": "[Acetaldehyde]", "values": [
      {"measurement": "logPo/w", "setting": "[1]", "result": "−0.16"}
    ]},
    {"smiles": "CCOC(=O)C(C)O", "note": "(stereo not shown) [ethyl lactate]", "values": [
      {"measurement": "logKo/w", "setting": "[1]", "result": 0.88}
    ]},
    {"smiles": "CCCCCC(=O)OCC", "note": "[ethyl-caproate]", "values": [
      {"measurement": "logKo/w", "setting": "[1]", "result": 2.83}
    ]},
    {"smiles": "CCCCCCCC(=O)OCC", "note": "[Ethylcaprylate]", "values": [
      {"measurement": "Log Ko/w", "setting": "[1]", "result": 3.9},
      {"measurement": "Flavor Retention, Short Gel Time (continuous)", "setting": "[2]", "result": 90, "unit": "%"},
      {"measurement": "Flavor Retention, Long Gel Time (Batch)", "setting": "[2]", "result": 90, "unit": "%"},
      {"measurement": "Convective Drying: % Retention", "setting": "[3]", "result": 65, "unit": "%"},
      {"measurement": "Drying \"water adsorbing\" Substances: % Retention", "setting": "[3]", "result": 0, "unit": "%"}
    ]},
    {"smiles": "CC(=O)OCCC(C)C", "note": "[isoamyl acetate]", "values": [
      {"measurement": "Log Ko/w", "setting": "[1]", "result": 2.12},
      {"measurement": "logPo/w", "setting": "[1]", "result": 2.12},
      {"measurement": "Flavor Retention, Short Gel Time (continuous)", "setting": "[2]", "result": 80, "unit": "%"},
      {"measurement": "Flavor Retention, Long Gel Time (Batch)", "setting": "[2]", "result": 18.5, "unit": "%"},
      {"measurement": "Convective Drying: % Retention", "setting": "[3]", "result": 60, "unit": "%"},
      {"measurement": "Drying \"water adsorbing\" Substances: % Retention", "setting": "[3]", "result": 95, "unit": "%"}
    ]},
    {"smiles": "C=C(C)C1CC=C(C)C(=O)C1", "note": "(stereo not shown) [carvone]", "values": [
      {"measurement": "logKo/w", "setting": "[1]", "result": 2.23}
    ]},
    {"smiles": "CC(C)CCO", "note": "[isoamyl alcohol]", "values": [
      {"measurement": "logKo/w", "setting": "[1]", "result": 1.28},
      {"measurement": "logPo/w", "setting": "[1]", "result": 1.22}
    ]},
    {"smiles": "CCOC(=O)CC", "note": "[ethyl propionate]", "values": [
      {"measurement": "Log Ko/w", "setting": "[1]", "result": 1.24},
      {"measurement": "logKo/w", "setting": "[1]", "result": 1.24},
      {"measurement": "Flavor Retention, Short Gel Time (continuous)", "setting": "[2]", "result": 61, "unit": "%"},
      {"measurement": "Flavor Retention, Long Gel Time (Batch)", "setting": "[2]", "result": 0, "unit": "%"},
      {"measurement": "Convective Drying: % Retention", "setting": "[3]", "result": 4, "unit": "%"},
      {"measurement": "Drying \"water adsorbing\" Substances: % Retention", "setting": "[3]", "result": 50, "unit": "%"}
    ]},
    {"smiles": "C=C1CCC2CC1C2(C)C", "note": "(stereo not drawn) [beta-pinene]", "values": [
      {"measurement": "logKo/w", "setting": "[1]", "result": 4.37}
    ]},
    {"smiles": "CC(=O)C(C)=O", "note": "[diacetyl (butanedione), butanedione]", "values": [
      {"measurement": "logKo/w", "setting": "[1]", "result": 1.33}
    ]},
    {"smiles": "CCCCCCC1CCC(=O)O1", "note": "(stereo not shown) [gamma-decalactone]", "values": [
      {"measurement": "logKo/w", "setting": "[1]", "result": 2.42}
    ]},
    {"smiles": "CCCC(=O)OCC", "note": "[ethyl butyrate]", "values": [
      {"measurement": "logKo/w", "setting": "[1]", "result": 1.77},
      {"measurement": "logPo/w", "setting": "[1]", "result": 1.73}
    ]},
    {"smiles": "O=Cc1ccccc1", "note": "[benzaldehyde]", "values": [
      {"measurement": "Flavor Retention, Short Gel Time (continuous)", "setting": "[2]", "result": 82, "unit": "%"},
      {"measurement": "Flavor Retention, Long Gel Time (Batch)", "setting": "[2]", "result": 11, "unit": "%"},
      {"measurement": "Convective Drying: % Retention", "setting": "[3]", "result": 52, "unit": "%"},
      {"measurement": "Drying \"water adsorbing\" Substances: % Retention", "setting": "[3]", "result": 80, "unit": "%"}
    ]},
    {"smiles": "CCOC(C)=O", "note": "[ethylacetate]", "values": [
      {"measurement": "logKo/w", "setting": "[1]", "result": 0.75}
    ]},
    {"smiles": "C=CC(C)(O)CCC=C(C)C", "note": "(stereo not shown) [linalool]", "values": [
      {"measurement": "logKo/w", "setting": "[1]", "result": 3.28}
    ]}
  ]
}
